Measurements as given in ChEMBL document CHEMBL1201862, “PubChem BioAssay data set” (2004).
Activity calls are given as the source filed them.

Key:
[1] = biological target: T1, Carboxy-terminal domain RNA polymerase II polypeptide A small phosphatase 1 (Homo sapiens, UniProt Q9GZU7); assay: CTDSP1 inhibitors, concentration-response, biochemical, absorbance readout, ultra-high-throughput screen actives (AID 540297); type: functional
T1 sequence (Q9GZU7 whole entry): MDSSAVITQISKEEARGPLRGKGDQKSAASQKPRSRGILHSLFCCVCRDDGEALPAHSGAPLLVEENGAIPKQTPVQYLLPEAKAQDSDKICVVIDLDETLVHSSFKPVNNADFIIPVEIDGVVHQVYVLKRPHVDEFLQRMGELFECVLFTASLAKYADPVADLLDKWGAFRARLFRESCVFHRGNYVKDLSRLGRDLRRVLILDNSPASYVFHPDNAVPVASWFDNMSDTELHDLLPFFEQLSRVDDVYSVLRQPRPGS

[2] = biological target: T2, Low molecular weight phosphotyrosine protein phosphatase (Homo sapiens, UniProt P24666); type: functional; settings: read-out: IC50_Mean;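 note: Dose-response confirmation assay measuring inhibition of LMPTP enzyme activity by fluorescence intensity read-out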
T2 sequence (P24666 whole entry): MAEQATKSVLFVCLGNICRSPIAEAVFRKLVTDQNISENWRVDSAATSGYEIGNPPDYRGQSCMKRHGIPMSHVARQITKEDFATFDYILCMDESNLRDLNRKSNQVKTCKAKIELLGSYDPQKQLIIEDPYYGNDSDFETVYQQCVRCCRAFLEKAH

[3] = biological target: Glucose-6-phosphate 1-dehydrogenase (Homo sapiens, UniProt P11413); assay: inhibition of Homo sapiens G6PD, dose series – biochemical, fluorescence, selectivity assay for P. falciparum G6PD inhibitor project, dose response (AID 504792); type: functional
Chain of Glucose-6-phosphate 1-dehydrogenase (P11413 whole entry): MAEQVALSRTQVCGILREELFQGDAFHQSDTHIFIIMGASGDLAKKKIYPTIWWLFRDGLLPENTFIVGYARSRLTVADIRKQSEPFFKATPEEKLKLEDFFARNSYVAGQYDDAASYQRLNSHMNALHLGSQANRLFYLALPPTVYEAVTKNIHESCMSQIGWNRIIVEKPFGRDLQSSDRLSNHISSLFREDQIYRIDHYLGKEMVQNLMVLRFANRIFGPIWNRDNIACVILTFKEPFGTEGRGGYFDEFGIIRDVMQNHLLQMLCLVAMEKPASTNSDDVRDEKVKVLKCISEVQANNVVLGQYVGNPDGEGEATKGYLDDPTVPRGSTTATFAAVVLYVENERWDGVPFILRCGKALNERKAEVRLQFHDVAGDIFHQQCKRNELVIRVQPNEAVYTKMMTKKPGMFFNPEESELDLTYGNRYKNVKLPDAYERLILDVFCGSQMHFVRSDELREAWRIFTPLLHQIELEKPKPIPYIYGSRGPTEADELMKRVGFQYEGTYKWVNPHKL

[4] = biological target: Nonstructural protein 1 (Influenza A virus, UniProt Q194T2); type: functional, Influenza A virus (A/California/07/2009(H1N1))
Chain of Nonstructural protein 1 (Q194T2 whole entry): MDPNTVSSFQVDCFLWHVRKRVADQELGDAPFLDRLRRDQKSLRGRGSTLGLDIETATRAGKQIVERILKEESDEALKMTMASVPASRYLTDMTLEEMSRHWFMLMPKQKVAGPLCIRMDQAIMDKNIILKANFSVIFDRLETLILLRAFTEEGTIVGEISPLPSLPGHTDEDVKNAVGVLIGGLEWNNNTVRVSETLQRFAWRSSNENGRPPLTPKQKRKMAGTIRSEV

[5] = test system: H9c2; assay: cells; type: functional, cell-based; settings: Rattus norvegicus, H9c2, Myocardium;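 note: confirmatory concentration-response retest of ultra-high-throughput screening hits for modulation of myocardial damage; cell death induced by hydrogen peroxide oxidative stress; compound pretreatment for 60 min then peroxide exposure for 2 h; potency is for protecting the cells against peroxide damage rather than for killing them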
[6] = biological target: T3, Tyrosyl-DNA phosphodiesterase 2 (Homo sapiens, UniProt O95551); assay: potency against TDP2 phosphodiesterase activity – biochemical, epi absorbance, IC50, dose response (AID 743297)
T3 sequence (O95551 whole entry): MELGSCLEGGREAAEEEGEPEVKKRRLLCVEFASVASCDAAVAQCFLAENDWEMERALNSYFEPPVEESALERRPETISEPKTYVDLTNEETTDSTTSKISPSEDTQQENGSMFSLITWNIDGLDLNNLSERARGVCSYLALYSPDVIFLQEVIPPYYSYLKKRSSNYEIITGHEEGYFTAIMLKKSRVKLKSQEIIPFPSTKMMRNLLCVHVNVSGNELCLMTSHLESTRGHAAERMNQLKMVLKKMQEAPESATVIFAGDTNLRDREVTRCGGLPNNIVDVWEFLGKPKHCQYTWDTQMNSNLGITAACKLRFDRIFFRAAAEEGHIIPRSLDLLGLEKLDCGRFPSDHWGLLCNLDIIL

[7] = biological target: Large T antigen (Simian virus 40, UniProt P03070); type: functional, Betapolyomavirus macacae;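 note: Confirmatory-stage PubChem screen for compounds that inhibit SV40 T antigen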
Chain of Large T antigen (P03070 whole entry): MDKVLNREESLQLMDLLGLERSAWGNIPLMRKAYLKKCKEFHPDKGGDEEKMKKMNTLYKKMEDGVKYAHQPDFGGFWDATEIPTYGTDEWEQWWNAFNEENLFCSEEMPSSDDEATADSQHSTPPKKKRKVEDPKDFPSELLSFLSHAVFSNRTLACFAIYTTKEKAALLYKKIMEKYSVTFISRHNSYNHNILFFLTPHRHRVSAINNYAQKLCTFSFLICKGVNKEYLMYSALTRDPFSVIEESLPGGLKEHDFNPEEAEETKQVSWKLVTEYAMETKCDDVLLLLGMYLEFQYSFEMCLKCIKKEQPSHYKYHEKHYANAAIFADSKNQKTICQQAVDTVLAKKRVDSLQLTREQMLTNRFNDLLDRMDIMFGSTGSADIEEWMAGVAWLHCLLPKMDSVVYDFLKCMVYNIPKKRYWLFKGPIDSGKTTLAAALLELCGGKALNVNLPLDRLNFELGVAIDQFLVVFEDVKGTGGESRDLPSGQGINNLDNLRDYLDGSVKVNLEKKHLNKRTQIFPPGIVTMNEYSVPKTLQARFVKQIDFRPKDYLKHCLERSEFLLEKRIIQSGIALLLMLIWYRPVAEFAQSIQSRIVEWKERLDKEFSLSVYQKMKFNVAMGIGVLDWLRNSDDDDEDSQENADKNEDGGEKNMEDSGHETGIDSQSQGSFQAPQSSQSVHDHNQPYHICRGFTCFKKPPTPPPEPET

[8] = luciferase reporter signal suppression in cells – H4 neuroglioma cells, luminescence, dose response (AID 1990); type: functional, cell-based
[9] = Luminescence Cell-Based Dose Response HTS to Identify Inhibitors of 5'UTR Stem-Loop Driven Prion Protein mRNA Translation in H4 Neuroglioblastoma Cells. [Related pubchem assays: 1827 (Project Summary), 1813 (Primary HTS)]; type: functional
[10] = alpha-synuclein stem-loop luciferase translation blockers – H4 neuroglioma cells, luminescence, confirmation (AID 1988); type: functional, cell-based
[11] = A549 cell cytotoxicity, dose response, cytotoxicity control, plate reader, cherry-pick, antagonist series (AID 743412); type: functional, cell-based
[12] = blockers of bursicon-stimulated LGR2 cAMP reporter – cell-based, HEK293, CRE-luciferase reporter, cherry pick, set 2, dose response (AID 743343); type: functional;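 note: transfected cells were stimulated with diluted bursicon conditioned medium after compound addition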
[13] = viability loss in HEK293 cells – cell-based, plate reader, cherry-picked samples, cytotoxicity control, dose response (AID 743446); type: functional
[14] = biological target: T4, Corticotropin-releasing factor receptor 2/Corticotropin-releasing factor-binding protein (Homo sapiens, UniProt P24387+Q13324); assay: Dose Response confirmation of uHTS hits for small molecule antagonists of the CRF-binding protein and CRF-R2 receptor complex.; type: functional; settings: read-out: IC50_Mean
T4 sequence (Q13324 whole entry): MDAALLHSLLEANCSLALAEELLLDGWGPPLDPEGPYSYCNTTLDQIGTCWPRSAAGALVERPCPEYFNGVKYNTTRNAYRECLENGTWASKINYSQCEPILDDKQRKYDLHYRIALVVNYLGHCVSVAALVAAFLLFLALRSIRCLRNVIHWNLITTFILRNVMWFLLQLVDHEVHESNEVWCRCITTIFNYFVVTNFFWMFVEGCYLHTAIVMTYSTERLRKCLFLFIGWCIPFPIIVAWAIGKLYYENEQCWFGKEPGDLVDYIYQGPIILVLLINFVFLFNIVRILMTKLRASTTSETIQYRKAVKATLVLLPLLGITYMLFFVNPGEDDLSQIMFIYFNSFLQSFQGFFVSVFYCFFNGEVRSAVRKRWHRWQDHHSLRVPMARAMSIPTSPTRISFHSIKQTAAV
T4 sequence (P24387 whole entry): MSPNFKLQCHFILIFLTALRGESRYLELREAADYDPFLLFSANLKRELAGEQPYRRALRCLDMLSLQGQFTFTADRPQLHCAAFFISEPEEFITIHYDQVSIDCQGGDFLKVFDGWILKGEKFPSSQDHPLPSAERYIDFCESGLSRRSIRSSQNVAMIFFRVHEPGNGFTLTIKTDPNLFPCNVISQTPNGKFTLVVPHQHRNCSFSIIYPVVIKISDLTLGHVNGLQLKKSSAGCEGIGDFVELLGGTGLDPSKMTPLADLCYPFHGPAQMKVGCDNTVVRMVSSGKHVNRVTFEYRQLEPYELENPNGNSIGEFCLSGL

[15] = biological target: T4, Corticotropin-releasing factor receptor 2/Corticotropin-releasing factor-binding protein; assay: activators of CRF receptor 2 with binding protein – uHTS hits, confirmation (AID 602473); type: functional; settings: read-out: EC50_Mean
[16] = test system: P388/ADR; assay: cells; type: functional; settings: Mus musculus
[17] = test system: SN12K1; assay: cells; type: functional; settings: Homo sapiens
[18] = test system: P388; assay: cells; type: functional; settings: Mus musculus
[19] = biological target: Cytochrome P450 2D6 (Homo sapiens, UniProt P10635);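 note: CYP2D6 member of a cytochrome P450 panel assay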
Chain of Cytochrome P450 2D6 (P10635 whole entry): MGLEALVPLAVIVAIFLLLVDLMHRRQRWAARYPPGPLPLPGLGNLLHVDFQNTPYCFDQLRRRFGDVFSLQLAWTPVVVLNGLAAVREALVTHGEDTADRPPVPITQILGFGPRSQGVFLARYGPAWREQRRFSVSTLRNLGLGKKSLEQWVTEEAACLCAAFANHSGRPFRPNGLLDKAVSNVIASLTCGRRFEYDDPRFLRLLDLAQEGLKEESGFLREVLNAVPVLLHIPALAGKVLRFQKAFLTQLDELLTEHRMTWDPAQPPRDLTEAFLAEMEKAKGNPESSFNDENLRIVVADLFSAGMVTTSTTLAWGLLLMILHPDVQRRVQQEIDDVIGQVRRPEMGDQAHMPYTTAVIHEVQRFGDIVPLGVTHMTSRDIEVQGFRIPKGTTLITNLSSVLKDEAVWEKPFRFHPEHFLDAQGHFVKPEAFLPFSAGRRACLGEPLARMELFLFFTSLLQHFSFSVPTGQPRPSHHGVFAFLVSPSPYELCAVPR

[20] = intracellular Trypanosoma cruzi inhibitors in host cells – cell-based, plate reader, cherry-pick samples, set 3, dose response (AID 651818); type: functional;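 note: compounds incubated with infected cells for about four days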
[21] = toxicity toward HepG2 liver cells – cell-based, plate reader, cherry-pick, antagonist series, cytotoxicity control, dose response (AID 743416); type: functional
[22] = blockade of melanocortin 4 receptor signaling – cell-based, plate reader, cherry pick, counter-screen for LGR2 antagonist project, dose response (AID 743444); type: functional;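 note: transfected HEK 293 cells stimulated with alpha-MSH peptide; potency of inhibitors of the alpha-MSH evoked signal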
[23] = Luminescent dose response cell-based high throughput screening assay for inhibitors of the Janus kinase 2 mutant JAK2V617F. [Related pubchem assays: 1446 (Primary screen.), 1521 (Confirmation assay.), 1486 (Counter screen.)]; type: functional

O=C(Nc1ccc(S(=O)(=O)Nc2nccs2)cc1)c1nn(-c2ccc(F)cc2)ccc1=O
IC50 [1]: 4.55 µM (active) | IC50 [2]: 22.3 µM (inactive)

O=C(Nc1ccccn1)c1sc2cc([N+](=O)[O-])ccc2c1Cl
IC50 [3]: > 80 µM (inactive)

O=C(Nc1nc(-c2ccccn2)cs1)c1cc(S(=O)(=O)N2CCOCC2)ccc1F
IC50 [4]: 7.21 µM (active) | IC50 [5]: 39.8 µM (inactive)

Cc1ccccc1OCC(=O)NCC(=O)OCC(=O)c1ccc([N+](=O)[O-])cc1
IC50 [3]: > 80 µM (inactive)

CC1=NN(c2ccc(C)c(C)c2)C(=O)/C1=C/c1ccc2c(c1)n(C)c(=O)n2C
IC50 [6]: > 128 µM (inactive)

Nc1ccc2[nH]c(CCCCCCCCc3nc4cc(N)ccc4[nH]3)nc2c1
IC50 [7]: 18.7 µM (active) | IC50 [2]: 11.4 µM (active)

CC1CN(c2ccccc2)NC1=O (configuration not stated)
IC50 [3]: 41.2 µM (inactive)

O=C(CSc1n[nH]c(-c2ccccn2)n1)Nc1ccc(F)cc1
EC50 [8]: 12.6 µM (active) | EC50 [9]: 11.5 µM (active) | EC50 [10]: > 120 µM (not active) | IC50 [4]: 5.65 µM (active)

COc1ccc(-c2cc(-c3nnc(COC(=O)C4CC4)o3)c3ccccc3n2)cc1OC
IC50 [5]: > 79 µM (inactive) | AC50 [11]: > 52 µM (inactive) | AC50 [12]: 43.2 µM (active) | AC50 [13]: > 52 µM (inactive)

Cc1ccccc1N/C(SCc1cccc(Br)c1)=C(/C#N)C(N)=O
IC50 [3]: > 80 µM (inactive)

CC(=O)Nc1cc2c(cc1[N+](=O)[O-])-c1ccccc1C2O (configuration not stated)
IC50 [3]: > 80 µM (inactive)

Cc1cc(N2CCN(C(=O)Nc3ccccc3C#N)CC2)c2ccccc2n1
IC50 [2]: 21.3 µM (inactive)

COC1(OC)C=CC(=O)C=C1NC(=O)c1ccccc1OC(C)=O
IC50 [3]: > 80 µM (inactive) | IC50 [14]: > 47.1 µM (inactive) | EC50 [15]: > 53 µM (inactive)

CCN(CC)CC[n+]1ccc2c(C)c3[nH]c4ccc(O)cc4c3c(C)c2c1
GI50 [16]: 2.21 µM (inactive) | GI50 [17]: 0.948 µM (active) | GI50 [18]: 0.012 µM (active) | AC50 [19]: 6.31 µM (inconclusive)

CC1=C2C(O)C(C(C)C(=O)NC(C)C)CCC2(C)C=CC1=O (configuration not stated)
GI50 [16]: > 100 µM (inactive) | GI50 [17]: > 100 µM (inactive) | GI50 [18]: > 100 µM (inactive)

CN(C)CC1CCCC(CN(C)C)C1=O (configuration not stated)
GI50 [16]: 0.0164 µM (active) | GI50 [17]: 16.3 µM (inactive) | GI50 [18]: 0.0614 µM (active)

Cc1ccc(N2C(=O)C3CSCN3C2=O)cc1 (configuration not stated)
GI50 [16]: > 100 µM (inactive) | GI50 [17]: > 100 µM (inactive) | GI50 [18]: > 100 µM (inactive)

C[C@H]1CN([C@@H](C)CO)C(=O)Cc2cc(NC(=O)Nc3ccc4c(c3)OCO4)ccc2O[C@H]1CN(C)Cc1ccc(C(F)(F)F)cc1
AC50 [20]: 7.92 µM (active)

C[C@H](CO)N1C[C@H](C)[C@H](CN(C)Cc2ccc(-c3ccccc3)cc2)Oc2c(NC(=O)Nc3ccc(C(F)(F)F)cc3)cccc2C1=O
AC50 [20]: 6 µM (active)

C[C@@H]1CN([C@H](C)CO)C(=O)c2cccc(NC(=O)Nc3ccc4c(c3)OCO4)c2O[C@@H]1CN(C)Cc1ccc(C(=O)Nc2ccccc2N)cc1
AC50 [20]: 2.84 µM (active)

Cc1noc(C)c1S(=O)(=O)Nc1ccc2c(c1)CC(=O)N([C@H](C)CO)C[C@@H](C)[C@H](CN(C)Cc1ccc(Oc3ccccc3)cc1)O2
AC50 [20]: 6.34 µM (active)

C[C@H](CO)N1C[C@H](C)[C@H](CN(C)Cc2ccncc2)Oc2ncc(C#CCC3CCCCC3)cc2C1=O
AC50 [11]: 16.1 µM (active) | AC50 [21]: 15.3 µM (active) | AC50 [12]: 30 µM (active) | AC50 [22]: 63.3 µM (active)

Cc1c(N/N=C2\C(=O)NC(=O)N(c3ccc(Br)cc3)C2=O)c(=O)n(-c2ccccc2)n1C
IC50 [4]: 6.25 µM (active)

Oc1ccc(/C=N/N2CCN(C3c4ccccc4-c4ccccc43)CC2)cc1O
IC50 [23]: 3.62 µM (active)

CC(=O)OC1CCC2(C)C3CCC4(C)C(c5ccc(=O)oc5)CC5OC54C3CCC2(O)C1 (configuration not stated)
GI50 [16]: > 200 µM (inactive) | GI50 [17]: 0.948 µM (active) | GI50 [18]: > 200 µM (inactive)

CCOC(=O)Nc1ccc2c(c1)N(C(=O)CCN(CC)CC)c1ccccc1S2 [ETHACIZINE]
GI50 [17]: 33.6 µM (inactive) | GI50 [18]: 9.46 µM (inactive)
